Measured values reported in patent US20230085307A1, “PYRIDAZINONE COMPOUND AND HERBICIDE” (NISSAN CHEMICAL CORPORATION, priority 2019, published 2023).

What was measured:
[1] = test system: late watergrass; assay: Test Example 1: herbicidal activity, application before weed generation under submerged conditions (Table 16, symbol A); type: in vivo, late watergrass (Echinochloa oryzicola); settings: amount of applied herbicide 320 g/ha
Summary of the method: (§1)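 Alluvial soil was flooded to 4 cm depth, weed seeds were sown mixed and 2.5-leaf rice seedlings were transplanted. On sowing day, the compound's emulsion, diluted in water to a set dose, was applied to the water surface. Plants grew at 25–30 °C and were scored 0–5 after three weeks.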

[2] = test system: Chinese sprangletop; assay: Test Example 3: herbicidal effect by foliage application, Wagner pot (Table 18, symbol D); type: in vivo, chinese sprangletop (Leptochloa chinensis); settings: 320 g/ha
Summary of the method: (§2)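 Plants were sown in alluvial soil held under 0.1–0.5 cm standing water and grown 14 days in a greenhouse at 25–30 °C. An emulsifiable formulation, water-diluted to the set dose, was then sprayed onto the foliage, and effects were scored three weeks later using previously defined criteria.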

[3] = test system: green foxtail; assay: Test Example 5: herbicidal effect by foliage application, plastic box (Table 20, symbol G); type: in vivo, green foxtail (Setaria viridis); settings: 320 g/ha; for herbicidal effect on G: green foxtail (evaluation grade 0-5): foliage application after 14-day growth, evaluated three weeks after application
Summary of the method: (§3)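 Sow seeds spot-wise in sterilized diluvial soil; cover with ~1.5 cm soil. Grow 14 days in greenhouse, 25° C. to 30° C. Spray foliage with emulsion diluted to predetermined amount. Rate effect after 3 weeks.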

[4] = test system: barnyard grass; assay: Test Example 5: herbicidal effect by foliage application, plastic box (Table 20, symbol H); type: in vivo, barnyard grass (Echinochloa crus-galli); settings: 320 g/ha; for herbicidal effect on H: barnyard grass (evaluation grade 0-5): foliage application after 14-day growth, evaluated three weeks after application
Summary of the method: as §3

[5] = test system: Italian ryegrass; assay: Test Example 5: herbicidal effect by foliage application, plastic box (Table 20, symbol K); type: in vivo, Italian ryegrass (Lolium multiflorum); settings: 320 g/ha; for herbicidal effect on K: Italian ryegrass (evaluation grade 0-5): foliage application after 14-day growth, evaluated three weeks after application
Summary of the method: as §3

[6] = test system: lambsquarters; assay: Test Example 5: herbicidal effect by foliage application, plastic box (Table 20, symbol O); type: in vivo, lambsquarters (Chenopodium album); settings: 320 g/ha; for herbicidal effect on O: lambsquarters (evaluation grade 0-5): foliage application after 14-day growth, evaluated three weeks after application
Summary of the method: as §3

[7] = test system: blackgrass; assay: Test Example 5: herbicidal effect by foliage application, plastic box (Table 20, symbol J); type: in vivo, blackgrass (Alopecurus myosuroides); settings: 320 g/ha; for herbicidal effect on J: blackgrass (evaluation grade 0-5): foliage application after 14-day growth, evaluated three weeks after application
Summary of the method: as §3

[8] = test system: oval-leafed pondweed; assay: Test Example 1: herbicidal activity, application before weed generation under submerged conditions (Table 16, symbol C); type: in vivo, oval-leafed pondweed (Monochoria vaginalis); settings: amount of applied herbicide 320 g/ha
Summary of the method: as §1

[9] = test system: persian speedwell; assay: Test Example 5: herbicidal effect by foliage application, plastic box (Table 20, symbol R); type: in vivo, Persian speedwell (Veronica persica); settings: 320 g/ha; for herbicidal effect on R: persian speedwell (evaluation grade 0-5): foliage application after 14-day growth, evaluated three weeks after application
Summary of the method: as §3

[10] = test system: rice flat sedge; assay: Test Example 3: herbicidal effect by foliage application, Wagner pot (Table 18, symbol E); type: in vivo, rice flat sedge (Cyperus iria); settings: 320 g/ha
Summary of the method: as §2

[11] = test system: redroot pigweed; assay: Test Example 5: herbicidal effect by foliage application, plastic box (Table 20, symbol N); type: in vivo, redroot pigweed (Amaranthus retroflexus); settings: 320 g/ha; for herbicidal effect on N: redroot pigweed (evaluation grade 0-5): foliage application after 14-day growth, evaluated three weeks after application
Summary of the method: as §3

[12] = test system: velvetleaf; assay: Test Example 5: herbicidal effect by foliage application, plastic box (Table 20, symbol M); type: in vivo, velvetleaf (Abutilon theophrasti); settings: 320 g/ha; for herbicidal effect on M: velvetleaf (evaluation grade 0-5): foliage application after 14-day growth, evaluated three weeks after application
Summary of the method: as §3

[13] = test system: barnyard grass; assay: Test Example 3: herbicidal effect by foliage application, Wagner pot (Table 18, symbol H); type: in vivo, barnyard grass (Echinochloa crus-galli); settings: 320 g/ha
Summary of the method: as §2

[14] = test system: southern crabgrass; assay: Test Example 5: herbicidal effect by foliage application, plastic box (Table 20, symbol F); type: in vivo, southern crabgrass (Digitaria ciliaris); settings: 320 g/ha; for herbicidal effect on F: southern crabgrass (evaluation grade 0-5): foliage application after 14-day growth, evaluated three weeks after application
Summary of the method: as §3

[15] = test system: wild oat; assay: Test Example 5: herbicidal effect by foliage application, plastic box (Table 20, symbol I); type: in vivo, wild oat (Avena fatua); settings: 320 g/ha; for herbicidal effect on I: wild oat (evaluation grade 0-5): foliage application after 14-day growth, evaluated three weeks after application
Summary of the method: as §3

[16] = test system: Japanese bulrush; assay: Test Example 1: herbicidal activity, application before weed generation under submerged conditions (Table 16, symbol B); type: in vivo, Japanese bulrush (Schoenoplectus juncoides); settings: amount of applied herbicide 320 g/ha
Summary of the method: as §1

[17] = test system: windgrass; assay: Test Example 5: herbicidal effect by foliage application, plastic box (Table 20, symbol L); type: in vivo, windgrass (Apera spica-venti); settings: 320 g/ha; for herbicidal effect on L: windgrass (evaluation grade 0-5): foliage application after 14-day growth, evaluated three weeks after application
Summary of the method: as §3

[18] = test system: chickweed; assay: Test Example 5: herbicidal effect by foliage application, plastic box (Table 20, symbol P); type: in vivo, common chickweed (Stellaria media); settings: 320 g/ha; for herbicidal effect on P: chickweed (evaluation grade 0-5): foliage application after 14-day growth, evaluated three weeks after application
Summary of the method: as §3

[19] = foliage application, three weeks after application

SMILES | Herbicidal effect, A: late watergrass [1] | herbicidal effect on Chinese sprangletop (D) [2] | Herbicidal effect, C: oval-leafed pondweed [8] | herbicidal effect on rice flat sedge (E) [10] | herbicidal effect on barnyard grass (H) [13] | Herbicidal effect, B: Japanese bulrush [16] | herbicidal effect on G: green foxtail (evaluation grade 0-5) [3] | herbicidal effect on H: barnyard grass (evaluation grade 0-5) [4] | herbicidal effect on K: Italian ryegrass (evaluation grade 0-5) [5] | herbicidal effect on O: lambsquarters (evaluation grade 0-5) [6] | herbicidal effect on J: blackgrass (evaluation grade 0-5) [7] | herbicidal effect on R: persian speedwell (evaluation grade 0-5) [9] | herbicidal effect on N: redroot pigweed (evaluation grade 0-5) [11] | herbicidal effect on M: velvetleaf (evaluation grade 0-5) [12] | herbicidal effect on F: southern crabgrass (evaluation grade 0-5) [14] | herbicidal effect on I: wild oat (evaluation grade 0-5) [15] | herbicidal effect on L: windgrass (evaluation grade 0-5) [17] | herbicidal effect on P: chickweed (evaluation grade 0-5) [18] | also measured
COc1ccccc1-c1sc2cc(CO)ccc2c1-c1c(O)c(C)nn(C)c1=O [3-135] | 2 (Herbicidal rate of 20% or more and less than 40%) | 3 (Herbicidal rate of 40% or more and less than 70%) | 0 (Herbicidal rate of 5% or less (almost no effect)) | 2 (Herbicidal rate of 20% or more and less than 40%) | 4 (Herbicidal rate of 70% or more and less than 90%) | 2 (Herbicidal rate of 20% or more and less than 40%) |  |  |  |  |  |  |  |  |  |  |  |  | G: green foxtail, herbicidal effect grade [3, 19]: 5 (Herbicidal rate of 90% or more (almost completely withered)); H: barnyard grass, herbicidal effect grade [4, 19]: 3 (Herbicidal rate of 40% or more and less than 70%); K: Italian ryegrass, herbicidal effect grade [5, 19]: 3 (Herbicidal rate of 40% or more and less than 70%); O: lambsquarters, herbicidal effect grade [6, 19]: 2 (Herbicidal rate of 20% or more and less than 40%); J: blackgrass, herbicidal effect grade [7, 19]: 3 (Herbicidal rate of 40% or more and less than 70%); R: persian speedwell, herbicidal effect grade [9, 19]: 4 (Herbicidal rate of 70% or more and less than 90%); N: redroot pigweed, herbicidal effect grade [11, 19]: 4 (Herbicidal rate of 70% or more and less than 90%); M: velvetleaf, herbicidal effect grade [12, 19]: 3 (Herbicidal rate of 40% or more and less than 70%); F: southern crabgrass, herbicidal effect grade [14, 19]: 4 (Herbicidal rate of 70% or more and less than 90%); I: wild oat, herbicidal effect grade [15, 19]: 4 (Herbicidal rate of 70% or more and less than 90%); L: windgrass, herbicidal effect grade [17, 19]: 2 (Herbicidal rate of 20% or more and less than 40%); P: chickweed, herbicidal effect grade [18, 19]: 4 (Herbicidal rate of 70% or more and less than 90%)
CCCC(=O)Oc1c(C)nn(C)c(=O)c1-c1c(-c2ccccc2C)sc2c(Cl)cccc12 [4-061] | 3 (Herbicidal rate of 40% or more and less than 70%) | 3 (Herbicidal rate of 40% or more and less than 70%) | 0 (Herbicidal rate of 5% or less (almost no effect)) | 4 (Herbicidal rate of 70% or more and less than 90%) | 3 (Herbicidal rate of 40% or more and less than 70%) | 0 (Herbicidal rate of 5% or less (almost no effect)) | 0 (Herbicidal rate of 5% or less (almost no effect)) | 0 (Herbicidal rate of 5% or less (almost no effect)) | 0 (Herbicidal rate of 5% or less (almost no effect)) | 0 (Herbicidal rate of 5% or less (almost no effect)) | 0 (Herbicidal rate of 5% or less (almost no effect)) | 2 (Herbicidal rate of 20% or more and less than 40%) | 2 (Herbicidal rate of 20% or more and less than 40%) | 0 (Herbicidal rate of 5% or less (almost no effect)) | 0 (Herbicidal rate of 5% or less (almost no effect)) | 0 (Herbicidal rate of 5% or less (almost no effect)) | 0 (Herbicidal rate of 5% or less (almost no effect)) | 3 (Herbicidal rate of 40% or more and less than 70%) | 
CCc1ccccc1-c1sc2c(Cl)cccc2c1-c1c(O)c(C)nn(C)c1=O [4-062] | 0 (Herbicidal rate of 5% or less (almost no effect)) | 4 (Herbicidal rate of 70% or more and less than 90%) | 0 (Herbicidal rate of 5% or less (almost no effect)) | 3 (Herbicidal rate of 40% or more and less than 70%) | 4 (Herbicidal rate of 70% or more and less than 90%) | 2 (Herbicidal rate of 20% or more and less than 40%) | 3 (Herbicidal rate of 40% or more and less than 70%) | 1 (Herbicidal rate of 5% or more and less than 20%) | 0 (Herbicidal rate of 5% or less (almost no effect)) | 0 (Herbicidal rate of 5% or less (almost no effect)) | 0 (Herbicidal rate of 5% or less (almost no effect)) | 3 (Herbicidal rate of 40% or more and less than 70%) | 3 (Herbicidal rate of 40% or more and less than 70%) | 2 (Herbicidal rate of 20% or more and less than 40%) | 1 (Herbicidal rate of 5% or more and less than 20%) | 0 (Herbicidal rate of 5% or less (almost no effect)) | 0 (Herbicidal rate of 5% or less (almost no effect)) | 3 (Herbicidal rate of 40% or more and less than 70%) | 
